According to patent US20060134017A1, “Oral treatment compositions containing an anti-adhesion agent, antibacterial agent and incompatible compound” (Colgate-Palmolive Company, priority 2004, published 2006):

B1: Papain: cysteine protease enzyme obtained from the fruit and leaves of Carica papaya (EDC papain) (protein, UniProt P00784 134-345, looked up)
Papain: IPEYVDWRQKGAVTPVKNQGSCGSCWAFSAVVTIEGIIKIRTGNLNEYSEQELLDCDRRSYGCNGGYPWSALQLVAQYGIHYRNTYPYEGVQRYCRSREKGPYAAKTDGVRQVQPYNEGALLYSIANQPVSVVLEAAGKDFQLYRGGIFVGPCGNKVDHAVAAVGYGPNYILIKNSWGTGWGENGYIRIKRGTGNSYGVCGLYTSSFYPVKN

What was measured:
[1] = generic protease activity assay (Panvera); type: biochemical; details: neat powder, 40° C., neutral pH; +/-3
Method: The activity of proteases was evaluated using generic protease assay from Panvera at 40° C. and neutral pH. The activity was assessed relative to papain on an equal weight basis of neat powder samples. Krillase protease enzymes are a mixture of eight different proteases; thus, the activity of any one of the eight was not discernable by the present assay. The assay aided in determining dose for the dose response studies. In clinical formulations, enzymes were dosed based on an equal weight basis. Table 2 gives the relative activity of neat enzymes.

[2] = tested on: oral bacteria culture on saliva-coated hydropxyapatite (SHAP) disks; assay: Artificial Mouth anti-attachment efficacy model (chemostat flow cell, SHAP disks); type: cell-based; details: for anti-adhesion efficacy, ranking of in vitro results: toothpaste formulas; for anti-adhesion efficacy relative to matching negative control paste (statistical analysis): toothpaste with 0.226 weight percent protease, ABS610 after 24 hours
Text: To test the efficacy of the actives in toothpaste formulas, the Artificial Mouth model was utilized. This is generally described in Herles, S., S. Olsen, et al. (1994). “Chemostat flow cell system: an in vitro model for the evaluation of antiplaque agents.” J Dent Res 73(11): 1748-55. The Artificial Mouth model is a flow system that simulates the human mouth. Saliva-coated hydropxyapatite (SHAP) disks served as the artificial teeth, and a bacteria culture consisting of the main oral bacteria in humans flowed through the system at a speed consistent with the in vivo human saliva. Eight disks for each treatment were then placed in the chemostat flow cell and oral bacteria culture was allowed to flow through the disks overnight (20-24 hours) to see if actives coated on the disk surfaces would prevent bio-film formation. After 24 hours the SHAP disks were removed and amount of bacteria quantified. The ABS610 of the solutions were then measured and analyzed. […] From this value, the percentage anti-adhesion effectiveness of the pastes is evaluated relative to a matching negative control. Two concentrations of protease were tested for each of the three protease; namely. 0.226 weight percent and 0.065 weight percent.

Molecule | Activity by protease assay [1] [CPU/g] | anti-adhesion efficacy, ranking of in vitro results [2] | anti-adhesion efficacy relative to matching negative control paste (statistical analysis) [2]
Ficin | 23 | better then the papain | showed efficacy
B1 | 25 | better then the matching placebo paste | showed efficacy
